Source: US9458153B2, “Dihydroquinolizinones for the treatment and prophylaxis of hepatitis B virus infection” (Hoffmann-La Roche Inc., priority 2014, dated 2016)
pIC50: −log10 of the molar value.

System: HBsAg
Assay: HBsAg assay (chemiluminescence immunoassay of secreted HBsAg in HepG2.2.15 culture supernatant)
Type: cell-based, HBV
Settings: HBsAg secretion reduced by 50% vs no drug control; HepG2.2.15 cells; CLIA kit
Experimental: HepG2.2.15 cells (Acs et al. Proc Natl Acad Sci USA, 84, (1987), 4641-4), a constitutively HBV-expressing cell line were cultured in DMEM+Glutamax-I medium (Invitrogen, Carlsbad, Calif., USA), supplemented with 10% fetal bovine serum (Invitrogen) and G418 (Invitrogen) at a final concentration of 200 mg/L and maintained in 5% CO2 at 37° C.
HepG2.2.15 cells were seeded in duplicate into white, 96-well plates at 1.5×10^4 cells/well. The cells were treated with a three-fold serial dilution series of the compounds in DMSO. The final DMSO concentration in all wells was 1% and DMSO was used as no drug control.
The HBsAg chemiluminescence immunoassay (CLIA) kit (Autobio Diagnostics Co., Zhengzhou, China, Catalog number: CL0310-2) was used to measure the levels of secreted HBV antigens semi-quantitatively. For the detection 50 μL/well culture supernatant was used and HBsAg was quantified using HBsAg chemiluminescence immunoassay (CLIA) kit (Autobio Diagnostics Co., Zhengzhou, China, Catalog number: CL0310-2), 50 μL of the supernatant was transferred to the CLIA assay plate and 50 μL of enzyme conjugate reagent was added into each well. The plates were sealed and gently agitated for 1 hour at room temperature. The supernatant-enzyme-mixture was discarded and wells were washed 6 times with 300 μL of PBS. The residual liquid was removed by plating the CLIA plate right side down on absorbent tissue paper. 25 μL of substrates A and B were added to each well. Luminance was measured using a luminometer (Mithras LB 940 Multimode Microplate Reader) after 10 minutes incubation. Dose-response curves were generated and the IC50 value was extrapolated by using the E-WorkBook Suite (ID Business Solutions Ltd., Guildford, UK).
The compounds of the present invention were tested for their capacity to inhibit HBsAg as described herein.

Structure (SMILES) | pIC50
CCC1Cc2cc(OC)c(C3CC3)cc2-c2cc(=O)c(C(=O)O)cn21 (single isomer, unassigned; (+)) [Example 90, (+)-10-cyclopropyl-6-ethyl-9-methoxy-2-oxo-6,7-dihydrobenzo[a]quinolizine-3-carboxylic acid] | 8.00
COc1cc2c(cc1OC)-c1cc(=O)c(C(=O)O)cn1C(CC(C)C)C2 (single isomer, unassigned; (+)) [Example 102, (+)-6-isobutyl-9,10-dimethoxy-2-oxo-6,7-dihydrobenzo[a]quinolizine-3-carboxylic acid] | 7.38
COCCOc1cc2c(cc1Cl)-c1cc(=O)c(C(=O)O)cn1C(CC(C)C)C2 (single isomer, unassigned; (+)) [Example 105, (+)-10-chloro-6-isobutyl-9-(2-methoxyethoxy)-2-oxo-6,7-dihydrobenzo[a]quinolizine-3-carboxylic acid] | 7.80
CCC1Cc2cc(OCc3ccccc3)c(C)cc2-c2cc(=O)c(C(=O)O)cn21 (single isomer, unassigned; (+)) [Example 116, (+)-9-benzyloxy-6-ethyl-10-methyl-2-oxo-6,7-dihydrobenzo[a]quinolizine-3-carboxylic acid] | 7.48
CCOc1cc2c(cc1Cl)-c1cc(=O)c(C(=O)O)cn1C(CC)C2 (single isomer, unassigned; (+)) [Example 118, (+)-10-chloro-9-ethoxy-6-ethyl-2-oxo-6,7-dihydrobenzo[a]quinolizine-3-carboxylic acid] | 8.40
COc1cc2c(cc1OCC(F)(F)F)CC(C(C)C)n1cc(C(=O)O)c(=O)cc1-2 (single isomer, unassigned; (+)) [Example 127, (+)-6-isopropyl-10-methoxy-2-oxo-9-(2,2,2-trifluoroethoxy)-6,7-dihydrobenzo[a]quinolizine-3-carboxylic acid] | 8.10
COCCOc1cc2c(cc1OC)-c1cc(=O)c(C(=O)O)cn1C(C(C)C)C2 (single isomer, unassigned; (+)) [Example 129, (+)-6-isopropyl-10-methoxy-9-(2-methoxyethoxy)-2-oxo-6,7-dihydrobenzo[a]quinolizine-3-carboxylic acid] | 7.92
COCCCOc1cc2c(cc1OC)-c1cc(=O)c(C(=O)O)cn1C(C(C)(C)C)C2 (single isomer, unassigned; (+)) [Example 132, (+)-6-tert-butyl-10-methoxy-9-(3-methoxypropoxy)-2-oxo-6,7-dihydrobenzo[a]quinolizine-3-carboxylic acid] | 9.00
COCCOc1cc2c(cc1OC)-c1cc(=O)c(C(=O)O)cn1C(C1(C)CC1)C2 (single isomer, unassigned; (+)) [Example 135, (+)-10-methoxy-9-(2-methoxyethoxy)-6-(1-methylcyclopropyl)-2-oxo-6,7-dihydrobenzo[a]quinolizine-3-carboxylic acid] | 8.40
COCCCOc1cc2c(c(Cl)c1F)-c1cc(=O)c(C(=O)O)cn1C(C(C)C)C2 (single isomer, unassigned; (+)) [Example 138, (+)-11-chloro-10-fluoro-6-isopropyl-9-(3-methoxypropoxy)-2-oxo-6,7-dihydrobenzo[a]quinolizine-3-carboxylic acid] | 8.05
COc1cc2c(cc1OCC(F)F)CC(C(C)C)n1cc(C(=O)O)c(=O)cc1-2 (single isomer, unassigned; (+)) [Example 142, (+)-9-(2,2-difluoroethoxy)-6-isopropyl-10-methoxy-2-oxo-6,7-dihydrobenzo[a]quinolizine-3-carboxylic acid] | 8.40
COc1cc2c(cc1OCC(C)(C)CO)CC(C(C)C)n1cc(C(=O)O)c(=O)cc1-2 (single isomer, unassigned; (+)) [Example 145, (+)-9-(3-hydroxy-2,2-dimethyl-propoxy)-6-isopropyl-10-methoxy-2-oxo-6,7-dihydrobenzo[a]quinolizine-3-carboxylic acid] | 8.22
